Measurements from ChEMBL document CHEMBL1177837, “5-Isopropylidene-3-ethyl rhodanine induce growth inhibition followed by apoptosis in leukemia cells” (Eur J Med Chem, 2010).
Activity calls are given as the source filed them.

Experiments:
Format in all cases: functional, cell-based
[1] = tested on: CCRF-CEM; experiment: Cytotoxicity against human CEM cells at 50 uM after 48 hrs by trypan blue exclusion assay
[2] = tested on: CCRF-CEM; experiment: Cell cycle arrest in human CEM cells assessed as accumulation at G2/M phase after 72 hrs by FACS
[3] = tested on: CCRF-CEM; experiment: Cell cycle arrest in human CEM cells assessed as accumulation at sub G1 phase after 72 hrs by FACS
[4] = tested on: CCRF-CEM; experiment: Cytotoxicity against human CEM cells at 100 uM after 48 hrs by trypan blue exclusion assay
[5] = tested on: CCRF-CEM; experiment: Cell cycle arrest in human CEM cells assessed as accumulation at G1 phase after 72 hrs by FACS
[6] = tested on: CCRF-CEM; experiment: Cell cycle arrest in human CEM cells assessed as accumulation at G2 phase after 72 hrs by FACS
[7] = tested on: CCRF-CEM; experiment: Cell cycle arrest in human CEM cells assessed as accumulation at S phase after 72 hrs by FACS
[8] = tested on: CCRF-CEM; experiment: Cytotoxicity against human CEM cells assessed as LDH release after at 10 to 250 uM; settings: TDE = time-dependent effect
[9] = tested on: CCRF-CEM; experiment: Cytotoxicity against human CEM cells at 250 uM after 48 hrs by trypan blue exclusion assay

Measured: Activity

CCN1C(=O)C(=C(C)C)SC1=S
active: [1] | [2] Dose-dependent effect | [3] Dose-dependent effect | [4] | [5] Dose-dependent effect | [6] Dose-dependent effect | [7] Dose-dependent effect | [8] tde | [9]
